pIC50: −log10 of the molar value.
Each molecule was assayed against Lysine--tRNA ligase (Homo sapiens, UniProt Q15046) (assay: Homogeneous Time-Resolved Fluorescence Assay).
Lysine--tRNA ligase, sequence (Q15046 whole entry): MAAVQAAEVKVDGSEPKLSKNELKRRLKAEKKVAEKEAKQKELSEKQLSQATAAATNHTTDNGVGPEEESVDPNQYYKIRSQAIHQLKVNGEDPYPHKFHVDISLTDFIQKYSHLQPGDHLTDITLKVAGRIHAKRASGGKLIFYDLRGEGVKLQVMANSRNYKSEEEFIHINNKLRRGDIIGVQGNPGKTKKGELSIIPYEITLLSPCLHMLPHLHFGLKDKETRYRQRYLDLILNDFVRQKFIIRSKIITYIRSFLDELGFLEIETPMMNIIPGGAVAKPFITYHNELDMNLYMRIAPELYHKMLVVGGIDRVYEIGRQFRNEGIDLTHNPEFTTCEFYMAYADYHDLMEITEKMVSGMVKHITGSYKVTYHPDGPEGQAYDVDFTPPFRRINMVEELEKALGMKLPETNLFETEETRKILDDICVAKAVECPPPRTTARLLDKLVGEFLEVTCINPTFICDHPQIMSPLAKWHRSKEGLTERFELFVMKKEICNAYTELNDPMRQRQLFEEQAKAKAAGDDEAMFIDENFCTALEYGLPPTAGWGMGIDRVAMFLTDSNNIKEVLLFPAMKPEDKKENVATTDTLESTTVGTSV
Procedure: Homogeneous time-resolved fluorescence (HTRF) assays were performed in black, half-area, flat bottom, 96-well microplates (Costar #3694). Human mitochondrial LysRS with a C-terminal HA-tag (mLysRS-HA), diluted in HTRF buffer (10 mM Tris-HCl pH 7.5, 50 mM NaCl, 10 mM 2-mercaptoethanol, BSA at 1 mg/ml) was added (20 μl at a dimer concentration of 3.75 nM) in the wells of microplates placed on ice. Compounds of formula I or II (1 μl of a 10 mM solution in DMSO) were then added to the wells, and mixing was achieved by pipetting up and down 3-times 10 μl. After centrifugation at 900 g for 1 min at 4° C., plates were placed at 4° C. on thermal modules of an epMotion 5075 v automated pipetting system (Eppendorf). A 10 μl sample of IN-H6 diluted in HTRF buffer at a dimer concentration of 250 nM was added and mixing was achieved by pipetting up and down 3-times 15 μl. Incubation was conducted at 4° C. for 1 h. A 10 μl aliquot of a mix of antibodies prepared in HTRF buffer, directed to the His-tag, conjugated with Eu3+ cryptate (Cisbio #61HISKLB, 0.125 μl per test, prepared as recommended by the supplier), and to the HA-tag, conjugated with XL665 (Cisbio #610HAXLB, 0.375 μl per test, prepared as recommended by the supplier), was added and mixing was achieved by pipetting up and down 3-times 15 μl. Incubation was conducted at 4° C. for 30 min.
In the case of `CCOC(=O)C1=C(C)NC(C)=C(C(=O)OCC)C1c1ccccc1/C=C/C(=O)OC(C)(C)C` [US20230414632, Compound I-a], the pIC50 was 4.19.
`COCCOC(=O)C1=C(C)NC(C)=C(C(=O)OC/C=C/c2ccccc2)C1c1cccc([N+](=O)[O-])c1` (stereo unspecified) [US20230414632, Compound I-b] was tested, and the pIC50 was 3.40.
`COC(=O)C1=C(C)NC(C)=C(C(=O)OC(C)(C)CN(C)CCC(c2ccccc2)c2ccccc2)C1c1cccc([N+](=O)[O-])c1` (stereo unspecified) [US20230414632, Compound I-c] gave a pIC50 of 3.49.
Work on `COC(=O)C1=C(C)NC(C)=C(C(=O)OCC(C)C)C1c1ccccc1[N+](=O)[O-]` (stereo unspecified) [US20230414632, Compound I-e] yielded a pIC50 of 3.35.
In the case of `COC(=O)C1=C(C)NC(C)=C(C(=O)OC2CCCN(Cc3ccccc3)C2)C1c1cccc([N+](=O)[O-])c1` (stereo unspecified) [US20230414632, Compound I-f], the pIC50 was 3.35.
`COC(=O)C1=C(C)NC(C)=C(C(=O)OCCN2CCN(C(c3ccccc3)c3ccccc3)CC2)C1c1cccc([N+](=O)[O-])c1` (stereo unspecified) [US20230414632, Compound I-g] gave a pIC50 of 3.40.

— BindingDB's records for patent US20230414632 (Centre National De La Recherche Scientifique, 2023)
